From ChEMBL document CHEMBL1126082, “Nucleosides and nucleotides. 107. 2-(cycloalkylalkynyl)adenosines: adenosine A2 receptor agonists with potent antihypertensive effects” (J Med Chem, 1992)

Tests used:
Rattus norvegicus [1] = assay: Dose producing 10% decrease in heart rate of anaesthetized spontaneous hypertensive male rat(SHR); type: functional
Adenosine receptor A1 = molecular target: T1, Adenosine receptor A1 (Rattus norvegicus, UniProt P25099); assay: Inhibition of [3H]CHA binding to adenosine A1 receptor from rat brain membranes; type: cell membranes, Membrane
T1 sequence (P25099 whole entry): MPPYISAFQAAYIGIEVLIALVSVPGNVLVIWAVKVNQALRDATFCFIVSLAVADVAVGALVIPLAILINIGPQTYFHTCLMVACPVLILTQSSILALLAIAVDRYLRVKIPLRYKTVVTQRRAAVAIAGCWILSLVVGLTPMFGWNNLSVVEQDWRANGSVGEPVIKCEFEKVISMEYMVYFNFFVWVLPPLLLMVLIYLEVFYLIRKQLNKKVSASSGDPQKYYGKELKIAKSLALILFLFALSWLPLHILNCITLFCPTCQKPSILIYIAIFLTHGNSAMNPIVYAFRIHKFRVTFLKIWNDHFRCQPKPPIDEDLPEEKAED

Rattus norvegicus [2] = assay: Dose producing 30% decrease in blood pressure of anesthetized spontaneous hypertensive male rat(SHR); type: functional
Adenosine A2 receptor = Adenosine A2 receptor (Rattus norvegicus, UniProt P29276+P30543)
Description: Inhibition of [3H]NECA binding to adenosine A2 receptor from rat striatal membranes

| Ki (Adenosine receptor A1) | Ki (Adenosine A2 receptor) | Compound | ED10 (Rattus norvegicus [1]) | ED30 (Rattus norvegicus [2]) |
| --- | --- | --- | --- | --- |
| 3.4 nM | 1.9 nM | Nc1nc(C#CC(O)c2ccccc2)nc2c1ncn2[C@@H]1O[C@H](CO)[C@@H](O)[C@H]1O (stereo not given in full) | 1.3 µg/kg | 0.05 µg/kg |
| 133 nM | 7.9 nM | CCCCCCC#Cc1nc(N)c2ncn([C@@H]3O[C@H](CO)[C@@H](O)[C@H]3O)c2n1 | > 100 µg/kg | 0.2 µg/kg |
| – | – | Nc1nc(C#CC2(O)CCCCC2)nc2c1ncn2[C@@H]1O[C@H](CO)[C@@H](O)[C@H]1O | 3.5 µg/kg | 0.02 µg/kg |
| – | – | Nc1nc(C#CC2(O)CCCCCCC2)nc2c1ncn2[C@@H]1O[C@H](CO)[C@@H](O)[C@H]1O | 13 µg/kg | 0.01 µg/kg |
| 400 nM | 37 nM | Nc1nc(C#CCCc2ccccc2)nc2c1ncn2[C@@H]1O[C@H](CO)[C@@H](O)[C@H]1O | > 100 µg/kg | 1.21 µg/kg |
| 8.3 nM | 20 nM | Nc1nc(C#CCO)nc2c1ncn2[C@@H]1O[C@H](CO)[C@@H](O)[C@H]1O | 0.74 µg/kg | 0.36 µg/kg |
| 88 nM | 12 nM | Nc1nc(C#CC2CCCC2)nc2c1ncn2[C@@H]1O[C@H](CO)[C@@H](O)[C@H]1O | > 100 µg/kg | 0.29 µg/kg |
| 32 nM | 19 nM | CC(C)(O)C#Cc1nc(N)c2ncn([C@@H]3O[C@H](CO)[C@@H](O)[C@H]3O)c2n1 | 1.4 µg/kg | 0.14 µg/kg |
| 15 nM | 18 nM | CC(O)C#Cc1nc(N)c2ncn([C@@H]3O[C@H](CO)[C@@H](O)[C@H]3O)c2n1 (stereo not given in full) | 0.8 µg/kg | 0.15 µg/kg |
| – | – | CCCCC#Cc1nc(N)c2ncn([C@@H]3O[C@H](CO)[C@@H](O)[C@H]3O)c2n1 | 67 µg/kg | 0.11 µg/kg |
| 701 nM | 109 nM | Nc1nc(C#Cc2ccccc2)nc2c1ncn2[C@@H]1O[C@H](CO)[C@@H](O)[C@H]1O | > 100 µg/kg | 10.1 µg/kg |
| 11 nM | 2 nM | CCCCCC(O)C#Cc1nc(N)c2ncn(C3O[C@H](CO)[C@@H](O)[C@H]3O)c2n1 (stereo not given in full) | 0.45 µg/kg | 0.06 µg/kg |
| 16 nM | 1.8 nM | CCCC(O)C#Cc1nc(N)c2ncn(C3O[C@H](CO)[C@@H](O)[C@H]3O)c2n1 (stereo not given in full) | 0.83 µg/kg | 0.04 µg/kg |
| 11 nM | 3.3 nM | Nc1nc(C#CC2(O)CCCC2)nc2c1ncn2C1O[C@H](CO)[C@@H](O)[C@H]1O (stereo not given in full) | 1.6 µg/kg | 0.07 µg/kg |
| 138 nM | 10 nM | Nc1nc(C#CC2CCCCC2)nc2c1ncn2C1O[C@H](CO)[C@@H](O)[C@H]1O (stereo not given in full) | > 100 µg/kg | 0.36 µg/kg |
| – | – | Nc1nc(C#CCC2CCCCC2)nc2c1ncn2C1O[C@H](CO)[C@@H](O)[C@H]1O (stereo not given in full) | > 100 µg/kg | 0.15 µg/kg |
| > 229 nM | 46 nM | Nc1nc(C#CCCCC2CCCCC2)nc2c1ncn2C1O[C@H](CO)[C@@H](O)[C@H]1O (stereo not given in full) | > 100 µg/kg | 1.64 µg/kg |
| – | – | CCNC(=O)[C@H]1O[C@@H](n2cnc3c(N)nc(NCCc4ccc(CCC(=O)O)cc4)nc32)[C@H](O)[C@@H]1O [CGS-21680] | > 100 µg/kg | 0.97 µg/kg |

| Compound | Ki (Adenosine receptor A1) | Ki (Adenosine A2 receptor) | ED10 (Rattus norvegicus [1]) | ED30 (Rattus norvegicus [2]) |
| --- | --- | --- | --- | --- |
| COc1cc(OC)cc(C(CNc2ncnc3c2ncn3[C@@H]2O[C@H](CO)[C@@H](O)[C@H]2O)c2ccccc2C)c1 (stereo not given in full) | 108 nM | 6.9 nM | > 100 µg/kg | – |
| Nc1nc(C#CCC2CCCC2)nc2c1ncn2[C@@H]1O[C@H](CO)[C@@H](O)[C@H]1O | – | 2.3 nM | > 100 µg/kg | 0.05 µg/kg |
| Nc1nc(C#CC2(O)CCCCCC2)nc2c1ncn2[C@@H]1O[C@H](CO)[C@@H](O)[C@H]1O | 27 nM | 1.1 nM | 5.6 µg/kg | 0.02 µg/kg |
| Nc1nc(C#CCCC2CCCCC2)nc2c1ncn2C1O[C@H](CO)[C@@H](O)[C@H]1O (stereo not given in full) | 313 nM | 26 nM | > 100 µg/kg | 0.48 µg/kg |
| Nc1nc(C#CCCC2CCCC2)nc2c1ncn2C1O[C@H](CO)[C@@H](O)[C@H]1O (stereo not given in full) | 136 nM | 3.4 nM | > 100 µg/kg | 0.16 µg/kg |
